Data as given in US9701672B2, “Dihydropyridinone MGAT2 inhibitors for use in the treatment of metabolic disorders” (BRISTOL-MYERS SQUIBB COMPANY, priority 2014, dated 2017).

Target: human MGAT-2 (Homo sapiens (Human), UniProt Q3SYC2)
Assay: MGAT LCMS assay (h-MGAT LCMS)
Type: biochemical
Details: human MGAT2 membranes expressed in Sf9 cells; 100 μM 2-oleoylglycerol, 15 μM oleoyl-coenzyme A
Protocol: The MGAT enzyme reactions were performed in Corning FALCON® 96-well polypropylene plates, in a total volume of 60 μL of 50 mM potassium phosphate buffer pH 7.4, containing a final concentration of 100 μM 2-oleoylglycerol, 15 μM oleoyl-coenzyme A and 0.0013 μg/μL human or mouse MGAT-2 or 0.0026 μg/μL rat recombinant MGAT-2 membranes expressed in Sf9 cells. Assay plates were run through a fully automated robotics system and shaken for 5 seconds every minute for a total 10 minutes. The reactions were then quenched with 120 μL of ice cold methanol containing 1 μg/mL 1,2-distearoyl-rac-glycerol as the internal standard. Plates were shaken for 2 minutes and spun down to remove protein precipitation. After the spin, samples were transferred to LC/MS compatible PCR plates. For LC/MS analysis, a ThermoFisher Surveyor pump, utilizing a Waters […]® C8, 50×2.1 mm column, was used for the chromatography of enzyme products. The buffer system consists of 0.1% formic acid in water with a mobile phase consisting 0.1% formic acid in methanol. The shallow gradient is 90-100% mobile phase in 0.2 min with a total run time of 2.3 min. The first 0.5 minutes of each injection was diverted to waste to eliminate the presence of phosphate buffer in the enzymatic reaction. The column was run at 0.6 mL/min and a temperature of 65° C. Mass spectrometry analysis of the samples was performed on a ThermoFisher Quantum Triple quad utilizing APCI (+) as the mode of ionization. Data was acquired in Single Ion Monitoring (SIM) mode analyzing Diolein=m/z 603.6 (PRODUCT) and 1,2-distearoyl-rac-glycerol (IS)=m/z 607.6. The ratio of Diolein to internal standard (Peak Area Ratio) is utilized to calculate IC50 values.
“NT” denotes “Not tested”.

Chain of human MGAT-2 (Q3SYC2 whole entry): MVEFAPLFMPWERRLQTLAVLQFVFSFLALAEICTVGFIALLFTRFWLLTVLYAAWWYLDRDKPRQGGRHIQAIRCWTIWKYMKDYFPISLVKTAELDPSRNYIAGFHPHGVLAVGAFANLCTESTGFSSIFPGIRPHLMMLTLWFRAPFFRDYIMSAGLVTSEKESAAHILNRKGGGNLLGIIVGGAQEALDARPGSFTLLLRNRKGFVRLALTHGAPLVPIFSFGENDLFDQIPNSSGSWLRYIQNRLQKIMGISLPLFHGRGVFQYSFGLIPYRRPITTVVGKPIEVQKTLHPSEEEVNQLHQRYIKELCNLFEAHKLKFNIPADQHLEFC

O=C1N[C@@](c2ccc(OCCCC(F)(F)F)cc2Cl)(C(F)(F)F)CC(c2ncc(C3CC3)s2)=C1c1nnn[nH]1 [Example 64]
IC50: 0.0011 µM

CCc1ccc(C2=C(c3nnn[nH]3)C(=O)N[C@@](c3ccc(Br)cc3)(C(F)(F)F)C2)s1 [Example 65]
IC50: 0.0088 µM

CCc1cnc(C2=C(c3nnn[nH]3)C(=O)N[C@@](c3ccc(OCCCCCC(F)(F)F)cc3F)(C(F)(F)F)C2)s1 [Example 66]
IC50: 0.0005 µM

Cc1ccc(C2=C(C#N)C(=O)N[C@@](c3ccc(OCCCC(F)(F)F)cc3)(C(F)(F)F)C2)s1 [Example 67, (S)-4-(5-Methylthiophen-2-yl)-2-oxo-6-(4-(4,4,4-trifluorobutoxy)phenyl)-6-(trifluoromethyl)-1,2,5,6-tetrahydropyridine-3-carbonitrile]
IC50: 0.0976 µM

N#CC1=C(c2ccc(Cl)s2)C[C@](c2ccc(OCCCC(F)(F)F)cc2)(C(F)(F)F)NC1=O [Example 68, (S)-4-(5-Chlorothiophen-2-yl)-2-oxo-6-(4-(4,4,4-trifluorobutoxy)phenyl)-6-(trifluoromethyl)-1,2,5,6-tetrahydropyridine-3-carbonitrile]
IC50: 0.0302 µM

Cc1csc(C2=C(C#N)C(=O)N[C@@](c3ccc(OCCCC(F)(F)F)cc3)(C(F)(F)F)C2)c1 [Example 69, (S)-4-(4-Methylthiophen-2-yl)-2-oxo-6-(4-(4,4,4-trifluorobutoxy)phenyl)-6-(trifluoromethyl)-1,2,5,6-tetrahydropyridine-3-carbonitrile]
IC50: 0.148 µM

COc1ccc(C2=C(C#N)C(=O)N[C@@](c3ccc(OCCCCC(F)(F)F)cc3)(C(F)(F)F)C2)cn1 [Example 70, (S)-6-Methoxy-2′-oxo-6′-(trifluoromethyl)-6′-(4-((5,5,5-trifluoropentyl)oxy)phenyl)-1′,2′,5′,6′-tetrahydro-[3,4′-bipyridine]-3′-carbonitrile]
IC50: 0.0323 µM

Cc1ccc(C2=C(C#N)C(=O)N[C@@](c3ccc(OCCCCCC(F)(F)F)cc3)(C(F)(F)F)C2)s1 [Example 71, (S)-4-(5-Methylthiophen-2-yl)-2-oxo-6-(4-((6,6,6-trifluorohexyl)oxy)phenyl)-6-(trifluoromethyl)-1,2,5,6-tetrahydropyridine-3-carbonitrile]
IC50: 0.0315 µM

COc1ccc(C2=C(C#N)C(=O)N[C@@](c3ccc(OCCCCCC(F)(F)F)cc3)(C(F)(F)F)C2)cn1 [Example 72, (S)-6-Methoxy-2′-oxo-6′-(4-((6,6,6-trifluorohexyl)oxy)phenyl)-6′-(trifluoromethyl)-1′,2′,5′,6′-tetrahydro-[3,4′-bipyridine]-3′-carbonitrile]
IC50: 0.0103 µM

N#CC1=C(c2ccc(C3CC3)s2)C[C@](c2ccc(OCCCC(F)(F)F)cc2)(C(F)(F)F)NC1=O [Example 74, (S)-4-(5-Cyclopropylthiophen-2-yl)-2-oxo-6-(4-(4,4,4-trifluorobutoxy)phenyl)-6-(trifluoromethyl)-1,2,5,6-tetrahydropyridine-3-carbonitrile]
IC50: 0.015 µM

CCc1ccc(C2=C(NC(=O)CS(C)(=O)=O)C(=O)N[C@@](c3ccc(OCCCCCC(F)(F)F)cc3)(C(F)(F)F)C2)s1 [Example 75, (S)—N-(4-(5-Ethylthiophen-2-yl)-2-oxo-6-(4-((6,6,6-trifluorohexyl)oxy)phenyl)-6-(trifluoromethyl)-1,2,5,6-tetrahydropyridin-3-yl)-2-(methylsulfonyl)acetamide]
IC50: 0.0015 µM

COc1ccc(NC(=O)C2=C(c3ccn(C4CC4)n3)C[C@](c3ccc(OCCCC(F)(F)F)cc3)(C(F)(F)F)NC2=O)cc1 [Example 76, (S)-4-(1-Cyclopropyl-1H-pyrazol-3-yl)-N-(4-methoxyphenyl)-2-oxo-6-(4-(4,4,4-trifluorobutoxy)phenyl)-6-(trifluoromethyl)-1,2,5,6-tetrahydropyridine-3-carboxamide]
IC50: 0.0042 µM

Cc1cnn(C2=C(C#N)C(=O)N[C@@](c3ccc(OCCCC(F)(F)F)cc3)(C(F)(F)F)C2)c1 [Example 77]
IC50: 0.522 µM
